Assay results reported in ChEMBL document CHEMBL1949499, “Nicotinic acids: liver-targeted SCD inhibitors with preclinical anti-diabetic efficacy” (Bioorg Med Chem Lett, 2011).

How the values were obtained:
[1] = Half life in C57/BL6 mouse at 10 mg/kg, po and 2 mg/kg, iv; type: ADME, organism-based; details: in vivo
[2] = Drug uptake in C57/BL6 mouse kidney at 30 mg/kg, po after 2 hrs; type: ADME, organism-based; parameters: dose 30 mg/kg, route oral; details: read-out: Drug uptake
[3] = Drug uptake in C57/BL6 mouse heart at 30 mg/kg, po after 24 hrs; type: ADME, organism-based; parameters: dose 30 mg/kg, route oral; details: read-out: Drug uptake
Nucleic Acid [4] = assay: Ratio of drug uptake in left median liver lobe to harderian gland in C57/BL6 mouse at 30 mg/kg, po after 6 hrs; type: ADME, organism-based; parameters: dose 30 mg/kg, route oral; details: in vivo
[5] = Drug uptake in high sucrose/fat free diet fed C57/BL6 mouse liver at 30 mg/kg, po after 3 hrs; type: ADME, organism-based; parameters: dose 30 mg/kg, route oral; details: read-out: Drug uptake
Mus musculus [6] = assay: Acute antidiabetic activity in high fat diet fed C57/BL6 mouse eDIO model assessed as increase in glucose clearance at 30 mg/kg, po administered 1 hr prior to glucose challenge by oGTT assay; type: functional
[7] = AUC in Sprague-Dawley rat plasma at 10 mg/kg, po and 2 mg/kg, iv; type: ADME, organism-based
[8] = Drug uptake in high sucrose/fat free diet fed C57/BL6 mouse liver at 10 mg/kg, po after 3 hrs; type: ADME, organism-based; parameters: dose 10 mg/kg, route oral; details: read-out: Drug uptake
Nucleic Acid [9] = assay: Ratio of drug uptake in left median liver lobe to harderian gland in C57/BL6 mouse at 30 mg/kg, po after 2 hrs; type: ADME, organism-based; parameters: dose 30 mg/kg, route oral; details: in vivo
[10] = Drug uptake in C57/BL6 mouse harderian glands at 30 mg/kg, po after 24 hrs; type: ADME, organism-based, Harderian gland; parameters: dose 30 mg/kg, route oral; details: read-out: Drug uptake
[11] = Drug uptake in C57/BL6 mouse cerebellum at 30 mg/kg, po after 6 hrs; type: ADME, organism-based; parameters: dose 30 mg/kg, route oral; details: read-out: Drug uptake
Acyl-CoA desaturase 1 [12] = biological target: T1, Acyl-CoA desaturase 1 (Rattus norvegicus, UniProt P07308); assay: Inhibition of SCD1 in Sprague-Dawley rat hepatocytes assessed as conversion of [14C]oleic acid formation by HPLC analysis; type: cell-based, Hepatocyte
T1 sequence (P07308 whole entry): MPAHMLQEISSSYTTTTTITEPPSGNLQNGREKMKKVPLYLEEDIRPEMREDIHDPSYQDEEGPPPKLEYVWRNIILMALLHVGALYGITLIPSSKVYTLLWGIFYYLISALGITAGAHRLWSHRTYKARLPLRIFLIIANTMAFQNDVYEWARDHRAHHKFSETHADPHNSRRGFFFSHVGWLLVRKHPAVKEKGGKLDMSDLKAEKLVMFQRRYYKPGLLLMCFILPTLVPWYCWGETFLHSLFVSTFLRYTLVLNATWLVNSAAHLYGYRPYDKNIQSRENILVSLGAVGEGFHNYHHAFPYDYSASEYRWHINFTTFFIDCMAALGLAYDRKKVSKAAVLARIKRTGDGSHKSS

[13] = Plasma concentration in high sucrose/fat free diet fed C57/BL6 mouse at 30 mg/kg, po after 3 hrs; type: ADME, organism-based; parameters: dose 30 mg/kg, route oral
[14] = Drug uptake in C57/BL6 mouse left median liver lobe at 30 mg/kg, po after 2 hrs; type: ADME, organism-based; parameters: dose 30 mg/kg, route oral; details: read-out: Drug uptake
[15] = Drug uptake in C57/BL6 mouse harderian glands at 30 mg/kg, po after 6 hrs; type: ADME, organism-based, Harderian gland; parameters: dose 30 mg/kg, route oral; details: read-out: Drug uptake
[16] = Drug uptake in C57/BL6 mouse left epididymal fat at 30 mg/kg, po after 24 hrs; type: ADME, organism-based, Epididymal fat pad; parameters: dose 30 mg/kg, route oral; details: male, read-out: Drug uptake
[17] = Half life in Sprague-Dawley rat at 10 mg/kg, po and 2 mg/kg, iv; type: ADME, organism-based; details: in vivo
[18] = Ratio of drug uptake in left median liver lobe to harderian gland in C57/BL6 mouse at 10 mg/kg, po after 6 hrs; type: ADME, organism-based; parameters: dose 10 mg/kg, route oral; details: in vivo
[19] = biological target: ATP-binding cassette sub-family C member 2 (Homo sapiens, UniProt Q92887); assay: Binding affinity to MRP2 expressed in MDCK2 cells coexpressing OATP1B3; type: cell-based; details: dog, mdck-ii
Acyl-CoA desaturase 1 [20] = biological target: T1, Acyl-CoA desaturase 1; assay: Inhibition of rat SCD1
Mus musculus [21] = assay: Acute antidiabetic activity in high fat diet fed po dosed C57/BL6 mouse eDIO model assessed as increase in glucose clearance administered 1 hr prior to glucose challenge by oGTT assay; type: functional, organism-based
[22] = Drug uptake in C57/BL6 mouse heart at 30 mg/kg, po after 6 hrs; type: ADME, organism-based; parameters: dose 30 mg/kg, route oral; details: read-out: Drug uptake
[23] = Plasma concentration in high sucrose/fat free diet fed C57/BL6 mouse at 100 mg/kg, po after 3 hrs; type: ADME, organism-based; parameters: dose 100 mg/kg, route oral
[24] = Drug uptake in high sucrose/fat free diet fed C57/BL6 mouse liver at 100 mg/kg, po after 3 hrs; type: ADME, organism-based; parameters: dose 100 mg/kg, route oral; details: read-out: Drug uptake
Acyl-CoA desaturase 1 [25] = biological target: T2, Acyl-CoA desaturase 1 (Mus musculus, UniProt P13516); assay: Inhibition of mouse SCD1
T2 sequence (P13516 whole entry): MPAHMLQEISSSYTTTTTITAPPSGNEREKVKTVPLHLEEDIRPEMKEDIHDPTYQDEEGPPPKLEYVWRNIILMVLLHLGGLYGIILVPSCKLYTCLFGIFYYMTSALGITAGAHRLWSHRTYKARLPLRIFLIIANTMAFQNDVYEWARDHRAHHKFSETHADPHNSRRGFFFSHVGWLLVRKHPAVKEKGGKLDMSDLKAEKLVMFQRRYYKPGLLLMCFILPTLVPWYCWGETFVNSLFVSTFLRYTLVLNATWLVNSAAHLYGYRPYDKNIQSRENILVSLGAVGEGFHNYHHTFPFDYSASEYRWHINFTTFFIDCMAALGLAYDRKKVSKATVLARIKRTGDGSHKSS

[26] = Plasma concentration in C57/BL6 mouse at 30 mg/kg, po after 6 hrs; type: ADME, organism-based; parameters: dose 30 mg/kg, route oral
[27] = AUC in C57/BL6 mouse plasma at 10 mg/kg, po and 2 mg/kg, iv; type: ADME, organism-based
[28] = Drug uptake in C57/BL6 mouse kidney at 30 mg/kg, po after 6 hrs; type: ADME, organism-based; parameters: dose 30 mg/kg, route oral; details: read-out: Drug uptake
[29] = biological target: T3, Stearoyl-CoA desaturase 5 (Homo sapiens, UniProt Q86SK9); assay: Inhibition of human SCD5
T3 sequence (Q86SK9 whole entry): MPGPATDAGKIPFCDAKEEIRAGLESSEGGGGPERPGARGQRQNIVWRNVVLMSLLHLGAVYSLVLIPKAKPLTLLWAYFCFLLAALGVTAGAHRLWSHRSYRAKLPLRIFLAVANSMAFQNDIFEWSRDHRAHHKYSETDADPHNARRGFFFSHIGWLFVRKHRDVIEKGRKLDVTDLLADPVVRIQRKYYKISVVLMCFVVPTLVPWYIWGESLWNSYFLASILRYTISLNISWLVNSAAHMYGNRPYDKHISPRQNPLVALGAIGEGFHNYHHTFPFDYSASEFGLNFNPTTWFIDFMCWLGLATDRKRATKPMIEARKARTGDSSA

[30] = Oral bioavailability in Sprague-Dawley rat plasma at 10 mg/kg; type: ADME, organism-based
[31] = Drug uptake in C57/BL6 mouse heart at 30 mg/kg, po after 2 hrs; type: ADME, organism-based; parameters: dose 30 mg/kg, route oral; details: read-out: Drug uptake
[32] = Drug uptake C57/BL6 in mouse left median liver lobe at 30 mg/kg, po after 6 hrs; type: ADME, organism-based; parameters: dose 30 mg/kg, route oral; details: read-out: Drug uptake
[33] = Plasma concentration in C57/BL6 mouse at 30 mg/kg, po after 2 hrs; type: ADME, organism-based; parameters: dose 30 mg/kg, route oral
Mus musculus [34] = assay: Inhibition of SCD activity in high sucrose/fat free diet fed po dosed C57/BL6 mouse liver assessed as reduction in conversion of [14C]stearic acid to [14C]oleic acid; type: functional, organism-based
[35] = Drug uptake in C57/BL6 mouse cerebellum at 30 mg/kg, po after 2 hrs; type: ADME, organism-based; parameters: dose 30 mg/kg, route oral; details: read-out: Drug uptake

Chain of ATP-binding cassette sub-family C member 2 (Q92887 whole entry): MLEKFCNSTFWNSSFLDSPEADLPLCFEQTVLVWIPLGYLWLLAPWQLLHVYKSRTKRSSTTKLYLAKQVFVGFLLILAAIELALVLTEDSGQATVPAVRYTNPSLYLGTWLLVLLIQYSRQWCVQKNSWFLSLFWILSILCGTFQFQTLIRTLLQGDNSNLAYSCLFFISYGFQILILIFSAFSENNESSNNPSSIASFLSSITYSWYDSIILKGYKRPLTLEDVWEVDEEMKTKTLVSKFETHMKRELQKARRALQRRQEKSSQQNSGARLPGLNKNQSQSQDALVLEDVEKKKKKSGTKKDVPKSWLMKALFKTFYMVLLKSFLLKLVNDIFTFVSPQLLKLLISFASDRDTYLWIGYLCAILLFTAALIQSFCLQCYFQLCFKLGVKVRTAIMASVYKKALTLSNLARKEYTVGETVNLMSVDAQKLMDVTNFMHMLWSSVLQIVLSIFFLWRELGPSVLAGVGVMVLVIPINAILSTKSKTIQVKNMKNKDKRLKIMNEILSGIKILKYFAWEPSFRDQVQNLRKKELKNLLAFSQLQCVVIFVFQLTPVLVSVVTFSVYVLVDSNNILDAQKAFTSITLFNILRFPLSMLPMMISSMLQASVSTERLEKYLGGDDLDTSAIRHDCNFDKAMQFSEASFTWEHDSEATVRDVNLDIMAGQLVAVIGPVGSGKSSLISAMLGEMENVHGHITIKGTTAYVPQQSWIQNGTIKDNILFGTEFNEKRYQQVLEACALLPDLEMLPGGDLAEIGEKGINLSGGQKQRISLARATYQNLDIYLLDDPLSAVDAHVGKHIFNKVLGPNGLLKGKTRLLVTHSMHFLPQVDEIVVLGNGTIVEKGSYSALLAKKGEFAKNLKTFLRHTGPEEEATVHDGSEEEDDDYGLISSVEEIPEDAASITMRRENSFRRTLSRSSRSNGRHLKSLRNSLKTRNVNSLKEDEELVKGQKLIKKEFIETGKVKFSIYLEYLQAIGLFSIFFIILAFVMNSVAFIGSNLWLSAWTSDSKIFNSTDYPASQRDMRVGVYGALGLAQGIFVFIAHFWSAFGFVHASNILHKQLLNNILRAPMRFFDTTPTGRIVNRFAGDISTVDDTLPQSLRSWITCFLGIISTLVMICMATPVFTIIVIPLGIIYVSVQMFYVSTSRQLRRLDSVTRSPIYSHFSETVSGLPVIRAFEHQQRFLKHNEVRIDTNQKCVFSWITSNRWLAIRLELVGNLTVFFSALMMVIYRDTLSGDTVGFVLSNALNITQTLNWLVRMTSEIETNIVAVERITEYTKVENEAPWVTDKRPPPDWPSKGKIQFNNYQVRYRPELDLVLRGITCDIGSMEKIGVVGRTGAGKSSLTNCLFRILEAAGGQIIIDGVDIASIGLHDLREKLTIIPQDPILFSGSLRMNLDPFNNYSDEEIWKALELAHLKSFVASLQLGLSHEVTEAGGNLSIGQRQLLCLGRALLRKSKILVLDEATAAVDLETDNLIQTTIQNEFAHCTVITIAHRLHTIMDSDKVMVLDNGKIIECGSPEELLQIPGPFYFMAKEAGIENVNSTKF

`O=C(O)c1cncc(-c2ccc(N3CCC(Oc4cc(F)ccc4Br)CC3)nn2)c1` gave a half-life [1] of 24 min, a concentration at 2 h [2] of 6.14 µM and a concentration at 24 h [3] of 32 nM. It also gave a Ratio (Nucleic Acid [4]) greater than 50, a concentration at 3 h [5] of 9.29 µM and an Activity (Mus musculus [6]) of 59%. It also gave an AUC [7] of 17.8 µM·h, a concentration at 3 h [8] of 2970 nM and a Ratio (Nucleic Acid [9]) of 11. It also gave a concentration at 24 h [10] of 5 nM, a concentration at 6 h [11] of 17 nM and an IC50 (Acyl-CoA desaturase 1 [12]) of 175 nM. The concentration at 3 h [13] was 450 nM, the concentration at 2 h [14] was 4.39 µM and the concentration at 6 h [15] was 98 nM. The concentration at 24 h [16] was 45 nM, the half-life [17] was 84 min and the Ratio [18] was 15. The Activity [19] was “Active”, the IC50 (Acyl-CoA desaturase 1 [20]) was 15 nM and the Activity (Mus musculus [21]) was “Dose-dependent effect”. The concentration at 6 h [22] was 333 nM, the concentration at 3 h [23] was 4.39 µM and the concentration at 3 h [24] was 53 µM. For the same compound, the IC50 (Acyl-CoA desaturase 1 [25]) was 9 nM, the concentration at 6 h [26] was 626 nM and the AUC [27] was 0.3 µM·h. For the same compound, the concentration at 6 h [28] was 1920 nM, the IC50 [29] was 4 nM and the bioavailability [30] was 43%. The concentration at 2 h [31] was 177 nM, the concentration at 6 h [32] was 5.2 µM and the concentration at 2 h [33] was 1210 nM. For the same compound, the inhibition (Mus musculus [34]) was “Dose-dependent effect” and the concentration at 2 h [35] was 10 nM.
